According to US8796296B2, “Aminopyrimidine derivatives as LRRK2 modulators” (Genentech, Inc., priority 2011, dated 2014):

Each compound was assayed against LRRK2 (Homo sapiens (Human), UniProt Q5S007, G2019S) (assay: In Vitro LRRK2 LabChip Assay (LRRK2 Ki)).
Format: biochemical
Protocol: In Vitro LRRK2 LabChip Assay
This assay was used to determine a compound's potency in inhibiting activity of LRRK2 by determining, Kiapp, IC50, or percent inhibition values. In a polypropylene plate, LRRK2, fluorescently-labeled peptide substrate, ATP and test compound were incubated together. Using a LabChip 3000 (Caliper Life Sciences), after the reaction the substrate was separated by capillary electrophoresis into two populations: phosphorylated and unphosphorylated. The relative amounts of each were quantitated by fluorescence intensity. LRRK2 Ki was determined according to the equation: Y=V0*(1−((x+Ki*(1+S/Km)+Et)/(2*Et)−(((x+Ki*(1+S/Km)+Et)^2−(4*Et*x))^0.5)/(2*Et))). Ki values in Table 4 and elsewhere herein are shown in μM.
Assay conditions and materials used were as follows:
LRRK2 Wild type in 5 mM MgCl2: 15 nM (Invitrogen lot #500607F)
Kinase reaction time: 2 hours
Wild type in 5 mM MgCl2: 80 μM
Kinase: LRRK2 G2019S (Invitrogen cat #PV4882). • LRRK2 Wild type (Invitrogen cat #PV4874).
Substrate: 5FAM-GAGRLGRDKYKTLRQIRQ-CONH2
Complete Reaction Buffer: H2O/25 mM Tris, pH 8.0/5 mM MgCl2/2 mM DTT/0.01% Triton X-100.
For serial dilutions, 34.6 μl DMSO was added to columns 3-24. For the assay controls, 37.5 μl DMSO was added to columns 1 and 2 of rows A and P. a,d and 50 μl 25 μM G-028831 (Staurosporine) was added to columns 1 and 2, row B. For the samples: to start at 100 μM, 37.5 μl DMSO was to columns 1 and 2, then 12.5 μl 10 mM compound; to start at 10 μM, 78 μl DMSO was added to columns 1 & 2, then 2 μl 10 mM compound; and to start at 1 μM, 25 μM compound (2 μl 10 mM cmpd+798 μl DMSO) was added to empty columns 1 and 2. A Precision instrument was used to perform 1:3.16 serial dilutions (“PLK_BM_serial_halflog”).
ATP was diluted to 282.1 μM in Complete Kinase Buffer (final concentration was 130 μM).
In Complete Reaction Buffer, substrate was diluted to 4 μM. Equal volumes of Complete Reaction Buffer and 4 μM substrate were combined to obtain the blank. Equal volumes of Complete Reaction Buffer and 4 μM substrate were combined and to the combined solution was added 2× final LRRK2 concentration.
To a 50 μl polypropylene plate, 5 μl/well buffer/substrate was added by hand to Blank wells. A Biomek FX was used to start the kinase reaction (“PLK SAR 23 ATP”). The following were added to the appropriate wells:
The plate was incubated for 2 hours in the dark. Biomek FX was used to stop the kinase reaction (“PLK Stop”), and 10 μl/well Stop solution was added to the Assay Plate.
Results were read on the LabChip 3000.
The LabChip 3000 was run using the job “LRRK2 IC50” with the following job settings: […]

Chain of LRRK2 (Q5S007 whole entry G2019S): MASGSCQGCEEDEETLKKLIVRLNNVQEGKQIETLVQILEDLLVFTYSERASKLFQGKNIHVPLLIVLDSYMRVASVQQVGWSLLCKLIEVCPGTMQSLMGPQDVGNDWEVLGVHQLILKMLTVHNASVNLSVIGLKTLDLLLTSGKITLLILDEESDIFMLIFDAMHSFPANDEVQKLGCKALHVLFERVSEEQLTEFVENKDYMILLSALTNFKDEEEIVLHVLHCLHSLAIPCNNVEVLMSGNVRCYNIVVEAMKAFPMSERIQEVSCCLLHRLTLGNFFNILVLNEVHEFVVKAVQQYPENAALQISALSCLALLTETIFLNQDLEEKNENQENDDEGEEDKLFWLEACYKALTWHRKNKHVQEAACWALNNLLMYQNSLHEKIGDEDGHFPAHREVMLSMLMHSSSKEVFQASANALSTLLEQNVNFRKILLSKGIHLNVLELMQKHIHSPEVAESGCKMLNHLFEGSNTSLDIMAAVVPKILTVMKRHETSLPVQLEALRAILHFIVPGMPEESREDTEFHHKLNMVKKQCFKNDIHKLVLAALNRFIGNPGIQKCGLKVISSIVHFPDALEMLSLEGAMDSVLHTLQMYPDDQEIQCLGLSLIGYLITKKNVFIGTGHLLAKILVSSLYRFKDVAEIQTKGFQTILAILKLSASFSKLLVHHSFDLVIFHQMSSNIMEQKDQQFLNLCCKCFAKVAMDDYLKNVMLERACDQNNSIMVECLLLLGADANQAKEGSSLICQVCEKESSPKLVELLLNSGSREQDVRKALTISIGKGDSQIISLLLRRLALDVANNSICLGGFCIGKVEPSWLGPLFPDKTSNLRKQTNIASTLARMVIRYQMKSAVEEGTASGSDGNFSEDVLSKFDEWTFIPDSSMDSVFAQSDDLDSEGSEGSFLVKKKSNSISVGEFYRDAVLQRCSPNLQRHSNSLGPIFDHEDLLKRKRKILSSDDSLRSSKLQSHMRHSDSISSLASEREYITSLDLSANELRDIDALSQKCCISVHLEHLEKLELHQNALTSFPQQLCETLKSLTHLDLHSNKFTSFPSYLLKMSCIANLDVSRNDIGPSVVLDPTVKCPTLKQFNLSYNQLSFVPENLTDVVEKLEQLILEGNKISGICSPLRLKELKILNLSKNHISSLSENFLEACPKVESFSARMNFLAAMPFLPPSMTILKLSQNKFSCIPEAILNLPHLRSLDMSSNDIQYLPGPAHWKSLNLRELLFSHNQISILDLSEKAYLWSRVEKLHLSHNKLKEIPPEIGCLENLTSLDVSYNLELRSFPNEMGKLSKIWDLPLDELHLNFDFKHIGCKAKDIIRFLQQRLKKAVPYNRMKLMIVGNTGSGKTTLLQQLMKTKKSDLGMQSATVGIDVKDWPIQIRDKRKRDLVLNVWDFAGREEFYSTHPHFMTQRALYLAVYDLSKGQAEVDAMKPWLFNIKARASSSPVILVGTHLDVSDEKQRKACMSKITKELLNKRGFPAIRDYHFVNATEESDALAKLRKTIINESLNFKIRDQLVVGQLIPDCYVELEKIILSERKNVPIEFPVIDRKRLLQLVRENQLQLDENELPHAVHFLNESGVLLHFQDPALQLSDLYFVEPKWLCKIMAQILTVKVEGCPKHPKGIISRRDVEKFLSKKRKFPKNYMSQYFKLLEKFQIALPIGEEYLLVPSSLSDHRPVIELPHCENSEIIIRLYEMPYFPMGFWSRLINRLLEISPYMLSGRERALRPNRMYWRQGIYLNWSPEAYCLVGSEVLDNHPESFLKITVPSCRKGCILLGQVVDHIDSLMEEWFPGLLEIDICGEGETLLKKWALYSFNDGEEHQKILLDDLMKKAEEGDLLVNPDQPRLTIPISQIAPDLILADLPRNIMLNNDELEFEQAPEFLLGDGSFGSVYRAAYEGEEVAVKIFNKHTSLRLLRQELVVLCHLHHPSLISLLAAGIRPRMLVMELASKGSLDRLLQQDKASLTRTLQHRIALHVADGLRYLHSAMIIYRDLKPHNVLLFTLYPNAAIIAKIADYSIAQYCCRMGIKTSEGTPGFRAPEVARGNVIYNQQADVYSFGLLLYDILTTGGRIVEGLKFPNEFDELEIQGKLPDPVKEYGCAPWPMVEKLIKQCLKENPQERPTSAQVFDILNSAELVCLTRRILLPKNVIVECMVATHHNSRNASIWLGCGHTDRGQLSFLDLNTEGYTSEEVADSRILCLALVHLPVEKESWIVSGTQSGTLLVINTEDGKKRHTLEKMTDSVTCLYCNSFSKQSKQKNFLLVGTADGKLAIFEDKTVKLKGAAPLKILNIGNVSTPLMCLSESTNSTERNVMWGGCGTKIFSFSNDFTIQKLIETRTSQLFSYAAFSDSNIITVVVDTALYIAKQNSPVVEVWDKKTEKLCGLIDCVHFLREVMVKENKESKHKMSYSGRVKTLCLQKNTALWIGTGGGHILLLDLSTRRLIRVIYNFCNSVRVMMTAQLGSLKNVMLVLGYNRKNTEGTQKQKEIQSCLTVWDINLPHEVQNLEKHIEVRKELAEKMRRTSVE

Structure (SMILES)	Ki [nM]
CNc1nc(Nc2cc3oc(C(=O)N(C)C)cc3cc2OC)ncc1C(F)(F)F [Compound 3, 5-methoxy-N,N-dimethyl-6-((4-(methylamino)-5-(trifluoromethyl)pyrimidin-2-yl)amino)benzofuran-2-carboxamide]	1
CNc1nc(Nc2ccc3c(c2OC)CN(C2COC2)C3=O)ncc1C(F)(F)F [Compound 20, 4-methoxy-5-(4-(methylamino)-5-(trifluoromethyl)pyrimidin-2-ylamino)-2-(oxetan-3-yl)isoindolin-1-one]	9
CNc1nc(Nc2cc3oc(=O)[nH]c3cc2Cl)ncc1Cl [Compound 13, 5-chloro-6-(5-chloro-4-(methylamino)pyrimidin-2-ylamino)benzo[d]oxazol-2(3H)-one]	4
CNc1nc(Nc2cc3oc(=O)n(C)c3cc2Cl)ncc1C(F)(F)F [Compound 5, 5-chloro-3-methyl-6-((4-(methylamino)-5-(trifluoromethyl)pyrimidin-2-yl)amino)benzo[d]oxazol-2(3H)-one]	4
CNc1nc(Nc2cc3c(cc2OC)N(C)C(=O)C(C)(C)O3)ncc1Cl [Compound 2, 7-((5-chloro-4-(methylamino)pyrimidin-2-yl)amino)-6-methoxy-2,2,4-trimethyl-2H-benzo[b][1,4]oxazin-3(4H)-one]	1
CNc1nc(Nc2cc3c(cc2OC)C(=O)N(C)CC3)ncc1C(F)(F)F [Compound 15, 7-methoxy-2-methyl-6-(4-(methylamino)-5-(trifluoromethyl)pyrimidin-2-ylamino)-3,4-dihydroisoquinolin-1(2H)-one]	7
CNc1nc(Nc2cc3c(cc2OC)c(C(=O)N2CCOCC2)cn3C)ncc1C(F)(F)F [Compound 30, (5-methoxy-1-methyl-6-(4-(methylamino)-5-(trifluoromethyl)pyrimidin-2-ylamino)-1H-indol-3-yl)(morpholino)methanone]	1
CNc1nc(Nc2cc3c(cc2Cl)n(C)c(=O)n3C)ncc1C(F)(F)F [Compound 4, 5-chloro-1,3-dimethyl-6-((4-(methylamino)-5-(trifluoromethyl)pyrimidin-2-yl)amino)-1H-benzo[d]imidazol-2(3H)-one]	2
CNc1nc(Nc2cc3c(cc2Cl)C(=O)N(C)C3)ncc1C(F)(F)F [Compound 9, 6-chloro-2-methyl-5-(4-(methylamino)-5-(trifluoromethyl)pyrimidin-2-ylamino)isoindolin-1-one]	1
CCNc1nc(Nc2cc3c(cc2Cl)c(C(=O)N2CCOCC2)cn3C)ncc1C(F)(F)F [Compound 29]	1
CCNc1nc(Nc2cc3c(cc2OC)C(=O)N(C2COC2)C3)ncc1C(F)(F)F [Compound 26, 5-(4-(ethylamino)-5-(trifluoromethyl)pyrimidin-2-ylamino)-6-methoxy-2-(oxetan-3-yl)isoindolin-1-one]	2
CNc1nc(Nc2ccc3c(c2OC)CN(C(C)(C)O)C3=O)ncc1C(F)(F)F [Compound 19, 2-(2-hydroxypropan-2-yl)-4-methoxy-5-(4-(methylamino)-5-(trifluoromethyl)pyrimidin-2-ylamino)isoindolin-1-one]	4
CNc1nc(Nc2cc3c(cc2OC)CN(C)C3=O)ncc1C(F)(F)F [Compound 7, 5-methoxy-2-methyl-6-(4-(methylamino)-5-(trifluoromethyl)pyrimidin-2-ylamino)isoindolin-1-one]	5
CNc1nc(Nc2cc3c(cc2OC)C(=O)N(C)CC3)ncc1C#N [Compound 16, 2-(7-methoxy-2-methyl-1-oxo-1,2,3,4-tetrahydroisoquinolin-6-ylamino)-4-(methylamino)pyrimidine-5-carbonitrile]	44
CNc1nc(Nc2cc3c(cc2Cl)c(C(=O)N2CCNCC2)cn3C)ncc1C(F)(F)F [Compound 28, (5-chloro-1-methyl-6-(4-(methylamino)-5-(trifluoromethyl)pyrimidin-2-ylamino)-1H-indol-3-yl)(piperazin-1-yl)methanone]	4
CCN1Cc2c(ccc(Nc3ncc(C(F)(F)F)c(NC)n3)c2OC)C1=O [Compound 18, 2-ethyl-4-methoxy-5-(4-(methylamino)-5-(trifluoromethyl)pyrimidin-2-ylamino)isoindolin-1-one]	9
CNc1nc(Nc2ccc3c(c2OC)CN(C2CC2)C3=O)ncc1C(F)(F)F [Compound 10, 2-cyclopropyl-4-methoxy-5-(4-(methylamino)-5-(trifluoromethyl)pyrimidin-2-ylamino)isoindolin-1-one]	7
CNc1nc(Nc2cc3nc(C)oc3cc2Cl)ncc1C(F)(F)F [Compound 6, N^2-(6-chloro-2-methylbenzo[d]oxazol-5-yl)-N^4-methyl-5-(trifluoromethyl)pyrimidine-2,4-diamine]	5
CNc1nc(Nc2cc3c(cc2Cl)c(C(=O)N2C[C@@H]4C[C@H]2CO4)cn3C)ncc1C(F)(F)F [Compound 33, (1S,4S)-2-oxa-5-azabicyclo[2.2.1]heptan-5-yl(5-chloro-1-methyl-6-(4-(methylamino)-5-(trifluoromethyl)pyrimidin-2-ylamino)-1H-indol-3-yl)methanone]	3
CCN1CCN(C(=O)c2cn(C)c3cc(Nc4ncc(C(F)(F)F)c(NC)n4)c(Cl)cc23)CC1 [Compound 32, (5-chloro-1-methyl-6-(4-(methylamino)-5-(trifluoromethyl)pyrimidin-2-ylamino)-1H-indol-3-yl)(4-ethylpiperazin-1-yl)methanone]	1
CNc1nc(Nc2cc3c(cc2Cl)c(C(=O)N2CCOCC2)cn3C)ncc1C(F)(F)F [Compound 22, (5-chloro-1-methyl-6-(4-(methylamino)-5-(trifluoromethyl)pyrimidin-2-ylamino)-1H-indol-3-yl)(morpholino)methanone]	3
CNc1nc(Nc2cc3c(cc2Cl)c(C(=O)N(C)C)cn3C)ncc1C(F)(F)F [Compound 27, 5-chloro-N,N,1-trimethyl-6-(4-(methylamino)-5-(trifluoromethyl)pyrimidin-2-ylamino)-1H-indole-3-carboxamide]	6
CNc1nc(Nc2cc3c(cc2OC)N(C)C(=O)C(C)(C)O3)ncc1C(F)(F)F [Compound 12, 6-methoxy-2,2,4-trimethyl-7-(4-(methylamino)-5-(trifluoromethyl)pyrimidin-2-ylamino)-2H-benzo[b][1,4]oxazin-3(4H)-one]	8
CNc1nc(Nc2cc3c(cc2OC)C(=O)N(CC(C)(C)O)C3)ncc1C(F)(F)F [Compound 23, 2-(2-hydroxy-2-methylpropyl)-6-methoxy-5-(4-(methylamino)-5-(trifluoromethyl)pyrimidin-2-ylamino)isoindolin-1-one]	10
CNc1nc(Nc2cc3c(cc2OC)C(=O)N(C)C3)ncc1C(F)(F)F [Compound 21, 6-methoxy-2-methyl-5-(4-(methylamino)-5-(trifluoromethyl)pyrimidin-2-ylamino)isoindolin-1-one]	5
CNc1nc(Nc2cc3c(cc2Cl)c(C(=O)N2CCN(C)CC2)cn3C)ncc1C(F)(F)F [Compound 31, (5-chloro-1-methyl-6-(4-(methylamino)-5-(trifluoromethyl)pyrimidin-2-ylamino)-1H-indol-3-yl)(4-methylpiperazin-1-yl)methanone]	1
CNc1nc(Nc2cc3c(cc2Cl)C(=O)N(C)CCO3)ncc1C(F)(F)F [Compound 1, 7-chloro-4-methyl-8-(4-(methylamino)-5-(trifluoromethyl)pyrimidin-2-ylamino)-3,4-dihydrobenzo[f][1,4]oxazepin-5(2H)-one]	3
CNc1nc(Nc2cc3cnn(C)c(=O)c3cc2OC)ncc1C(F)(F)F [Compound 17, 7-methoxy-2-methyl-6-(4-(methylamino)-5-(trifluoromethyl)pyrimidin-2-ylamino)phthalazin-1(2H)-one]	27
CNc1nc(Nc2cc3c(cc2OC)C(=O)N(C2COC2)C3)ncc1C(F)(F)F [Compound 25, 6-methoxy-5-(4-(methylamino)-5-(trifluoromethyl)pyrimidin-2-ylamino)-2-(oxetan-3-yl)isoindolin-1-one]	6
